Experiment [1] has as its target T1, FAP-expressing human WI-38 fibroblasts (Homo sapiens, UniProt Q12884).
T1 construct: FAP-expressing human WI-38 fibroblasts (ECACC) were cultured in EMEM; host or cells: WI-38 human fibroblasts
As to the kind of experiment: Competitive FACS binding assay. The procedure:
Cells were analyzed in an Attune NxT flow cytometer. […] […].
Cells were analyzed in an Attune NxT flow cytometer. […]
Background: A flow cytometer gives signals particle by particle.

The target of the next experiment is Human recombinant FAP (Homo sapiens, UniProt Q12884). Put plainly: FRET-based FAP protease activity assay. Format: biochemical. Set-up: purchased R&D systems 3715-SE. The conditions noted are these: pIC50 Category (Activity), FRET-based FAP protease activity assay, recombinant human FAP, 37° C.
Chain of Human recombinant FAP (Q12884 whole entry): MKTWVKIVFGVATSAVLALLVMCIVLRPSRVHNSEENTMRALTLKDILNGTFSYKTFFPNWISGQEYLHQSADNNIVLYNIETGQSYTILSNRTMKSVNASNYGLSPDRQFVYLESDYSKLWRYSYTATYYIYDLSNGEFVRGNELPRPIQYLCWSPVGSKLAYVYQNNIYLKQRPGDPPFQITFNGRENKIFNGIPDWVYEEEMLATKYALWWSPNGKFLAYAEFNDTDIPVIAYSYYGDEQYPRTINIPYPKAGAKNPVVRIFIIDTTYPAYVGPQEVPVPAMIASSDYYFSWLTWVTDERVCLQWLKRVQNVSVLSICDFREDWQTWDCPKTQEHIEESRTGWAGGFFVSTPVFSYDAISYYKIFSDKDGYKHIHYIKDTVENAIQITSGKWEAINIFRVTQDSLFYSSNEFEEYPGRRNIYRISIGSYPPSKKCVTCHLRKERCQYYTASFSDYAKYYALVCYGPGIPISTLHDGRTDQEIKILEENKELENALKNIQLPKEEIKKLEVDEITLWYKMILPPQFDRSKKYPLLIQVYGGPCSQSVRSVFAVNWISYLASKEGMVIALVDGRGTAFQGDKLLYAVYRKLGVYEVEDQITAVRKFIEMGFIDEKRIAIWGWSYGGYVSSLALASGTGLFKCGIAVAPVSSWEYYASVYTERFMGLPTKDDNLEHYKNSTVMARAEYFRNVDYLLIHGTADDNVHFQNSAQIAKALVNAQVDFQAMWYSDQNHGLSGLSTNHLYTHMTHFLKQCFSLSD

Experimental findings from patent publication US20230212549A1, “COMPOUNDS COMPRISING A […] LIGAND AND USE THEREOF” (priority 2021, published 2023) are described below.

Numbered stars: 1 amine (or outer) side, 2 acyl side, 3 side chain; on linkers, the order of the positions; unused ones are H or OH. Bridge positions count the residues as written; N and C are the ends. Square brackets hold non-standard residues; d marks the D form. Peptide text beside a SMILES is read from it. * marks the point of attachment. TBMB(SCH2CH2NH-DOTA) = O=C(O)CN1CCN(CC(=O)O)CCN(CC(=O)NCCSCc2cc(C[*:1])cc(C[*:2])c2)CCN(CC(=O)O)CC1; X13 = O=C(O)CN1CCN(CC(=O)O)CCN(CC(=O)N2CCN(Cc3cc(C[*:1])cc(C[*:2])c3)CC2)CCN(CC(=O)O)CC1; X32 = O=C(O)CN1CCN(CC(=O)O)CCN(CC(=O)NCc2cc(C[*:1])cc(C[*:2])c2)CCN(CC(=O)O)CC1; Phe(4-Cl) = N[C@@H](Cc1ccc(Cl)cc1)C(=O)O; Pro(4S-NH2) = N[C@@H]1CN[C@H](C(=O)O)C1; Phe(2-Cl) = N[C@@H](Cc1ccccc1Cl)C(=O)O; Pro(4,4-F2) = O=C(O)[C@@H]1CC(F)(F)CN1; mXylylene = c1cc(C[*:1])cc(C[*:2])c1; Pentanesulfonyl = CCCCCS(=O)(=O)*; Hyp = O=C(O)[C@@H]1C[C@@H](O)CN1; Nphe = O=C(O)CNCc1ccccc1; Orn = NCCC[C@H](N)C(=O)O; Hexanoyl = CCCCCC(=O)*; Nleu = CC(C)CNCC(=O)O; Nlys = NCCCCNCC(=O)O A value given as a limit tells only on which side of the number the result lay.

T1 sequence (Q12884 whole entry): as above

As for `CCCCCC(=O)N[C@H]1CSCc2cccc(c2)CSC[C@@H](C(N)=O)NC(=O)[C@H](Cc2ccccc2)NC(=O)[C@H](CCC(=O)O)NC(=O)[C@H]([C@@H](C)O)NC(=O)[C@@H]2CC(F)(F)CN2C(=O)[C@@H]2CCCN2C1=O` [3BP-3365, Hex-[Cys(3MeBn)-Pro-4Dfp-Thr-Glu-Phe-Cys]-NH2] (Hexanoyl-CP[Pro(4,4-F2)]TEFC-NH2; linker 1-7 via mXylylene), the figures for the IC50 (in experiment [1]; on Human recombinant FAP) were over 1000 nM and 100 to 794 nM, respectively.
The like results for `CCCCCC(=O)N[C@H]1CSCc2cccc(c2)CSC[C@@H](C(N)=O)NC(=O)[C@H](Cc2ccccc2)NC(=O)[C@H](CCC(=O)O)NC(=O)[C@H]([C@@H](C)O)NC(=O)[C@@H]2C[C@@H](O)CN2C(=O)[C@@H]2CCCN2C1=O` [3BP-3366, Hex-[Cys(3MeBn)-Pro-Hyp-Thr-Glu-Phe-Cys]-NH2] (Hexanoyl-CP[Hyp]TEFC-NH2; linker 1-7 via mXylylene) were, in that order, 10 to 79.4 nM and 10 to 79.4 nM.
The matching figures for `CCCCCC(=O)N[C@H]1CSCc2cccc(c2)CSC[C@@H](C(N)=O)NC(=O)[C@H](Cc2ccccc2)NC(=O)[C@H](CCC(=O)O)NC(=O)[C@H]([C@@H](C)O)NC(=O)[C@@H]2C[C@H](N)CN2C(=O)[C@@H]2CCCN2C1=O` [3BP-3367, Hex-[Cys(3MeBn)-Pro-Tap-Thr-Glu-Phe-Cys]-NH2] (Hexanoyl-CP[Pro(4S-NH2)]TEFC-NH2; linker 1-7 via mXylylene): over 1000 nM and 100 to 794 nM.
The like results for `CCCCCC(=O)N[C@H]1CSCc2cccc(c2)CSC[C@@H](C(N)=O)NC(=O)[C@H](Cc2ccccc2Cl)NC(=O)[C@H](CCC(=O)O)NC(=O)[C@H]([C@@H](C)O)NC(=O)[C@@H]2CCCN2C(=O)[C@@H]2CCCN2C1=O` [3BP-3368, Hex-[Cys(3MeBn)-Pro-Pro-Thr-Glu-Ocf-Cys]-NH2] (Hexanoyl-CPPTE[Phe(2-Cl)]C-NH2; linker 1-7 via mXylylene) were, in that order, 100 to 794 nM and 10 to 79.4 nM.
As to `CCCCCC(=O)N[C@H]1CSCc2cccc(c2)CSC[C@@H](C(N)=O)NC(=O)[C@H](Cc2ccc(Cl)cc2)NC(=O)[C@H](CCC(=O)O)NC(=O)[C@H]([C@@H](C)O)NC(=O)[C@@H]2CCCN2C(=O)[C@@H]2CCCN2C1=O` [3BP-3369, Hex-[Cys(3MeBn)-Pro-Pro-Thr-Glu-Pcf-Cys]-NH2] (Hexanoyl-CPPTE[Phe(4-Cl)]C-NH2; linker 1-7 via mXylylene), the IC50 (in experiment [1]; on Human recombinant FAP) was 100 to 794 nM each time.
`CCCCCC(=O)N[C@H]1CSCc2cccc(c2)CSC[C@@H](C(N)=O)NC(=O)[C@H](Cc2ccccc2)NC(=O)[C@H](CCC(=O)O)NC(=O)[C@H](CCCNC(C)=O)NC(=O)[C@@H]2CCCN2C(=O)[C@@H]2CCCN2C1=O` [3BP-3372, Hex-[Cys(3MeBn)-Pro-Pro-Orn(Ac)-Glu-Phe-Cys]-NH2] (Hexanoyl-CPP[Orn](Ac)EFC-NH2; linker 1-7 via mXylylene): the IC50 was over 1000 nM in experiment [1] and 100 to 794 nM on Human recombinant FAP.
As for `CCCCCC(=O)N[C@H]1CSCc2cccc(c2)CSC[C@@H](C(N)=O)NC(=O)[C@H](Cc2ccccc2C(F)(F)F)NC(=O)[C@H](CCC(N)=O)NC(=O)[C@H]([C@@H](C)O)NC(=O)[C@@H]2CCCN2C(=O)[C@@H]2CCCN2C1=O` [3BP-3409, Hex-[Cys(3MeBn)-Pro-Pro-Thr-Gln-Otf-Cys]-NH2], the IC50 is 10 to 79.4 nM in experiment [1] and under 10 nM on Human recombinant FAP.
The matching figures for `CCCCCC(=O)N[C@H]1CSCc2cc(CNC(=O)CN3CCN(CC(=O)O)CCN(CC(=O)O)CCN(CC(=O)O)CC3)cc(c2)CSC[C@@H](C(=O)N[C@@H](CC(=O)O)C(N)=O)NC(=O)[C@H](Cc2ccccc2)NC(=O)[C@H](CCC(N)=O)NC(=O)[C@H]([C@@H](C)O)NC(=O)[C@@H]2CCCN2C(=O)[C@@H]2CCCN2C1=O` [3BP-3556, Hex-[Cys(tMeBn(DOTA-NH))-Pro-Pro-Thr-Gln-Phe-Cys]-Asp-NH2] (Hexanoyl-CPPTQFCD-NH2; linker 1-7 via X32): 10 to 79.4 nM and 10 to 79.4 nM.
The like results for `CSCC[C@@H](NC(C)=O)C(=O)N[C@H]1CSCc2cc(CSCCNC(=O)CN3CCN(CC(=O)O)CCN(CC(=O)O)CCN(CC(=O)O)CC3)cc(c2)CSC[C@@H](C(=O)O)NC(=O)[C@H](Cc2ccccc2)NC(=O)[C@H](CCC(N)=O)NC(=O)[C@H]([C@@H](C)O)NC(=O)[C@@H]2CCCN2C(=O)[C@@H]2CCCN2C1=O` [3BP-3682, Ac-met-[Cys(tMeBn(DOTA-AET))-Pro-Pro-Thr-Gln-Phe-Cys]-OH] were, in that order, 10 to 79.4 nM and 10 to 79.4 nM.
On to `CCCCCS(=O)(=O)N[C@H]1CSCc2cc(CSCCNC(=O)CN3CCN(CC(=O)O)CCN(CC(=O)O)CCN(CC(=O)O)CC3)cc(c2)CSC[C@@H](C(=O)O)NC(=O)[C@H](Cc2ccccc2)NC(=O)[C@H](CCC(=O)O)NC(=O)[C@H]([C@@H](C)O)NC(=O)[C@@H]2CCCN2C(=O)[C@@H]2CCCN2C1=O` [3BP-3691, Pentyl-SO2-[Cys(tMeBn(DOTA-AET))-Pro-Pro-Thr-Glu-Phe-Cys]-OH] (Pentanesulfonyl-CPPTEFC-OH; linker 1-7 via TBMB(SCH2CH2NH-DOTA)), for which the figures for the IC50 (in experiment [1]; at Human recombinant FAP) were under 10 nM and 10 to 79.4 nM, respectively.
For the molecule `CCCCCC(=O)N[C@H]1CSCc2cc(cc(CN3CCN(C(=O)CN4CCN(CC(=O)O)CCN(CC(=O)O)CCN(CC(=O)O)CC4)CC3)c2)CSC[C@@H](C(=O)N[C@@H](CC(=O)O)C(N)=O)NC(=O)[C@H](Cc2ccccc2)NC(=O)[C@H](C)NC(=O)[C@H]([C@@H](C)O)NC(=O)[C@@H]2CCCN2C(=O)[C@@H]2CCCN2C1=O` [3BP-3739, Hex-[Cys(tMeBn(DOTA-PP))-Pro-Pro-Thr-Ala-Phe-Cys]-Asp-NH2] (Hexanoyl-CPPTAFCD-NH2; linker 1-7 via X13), the IC50 (in experiment [1]; on Human recombinant FAP) was 100 to 794 nM throughout.
As to `CCCCCC(=O)N[C@H]1CSCc2cc(cc(CN3CCN(C(=O)CN4CCN(CC(=O)O)CCN(CC(=O)O)CCN(CC(=O)O)CC4)CC3)c2)CSC[C@@H](C(=O)N[C@@H](CC(=O)O)C(N)=O)NC(=O)[C@H](Cc2ccccc2)NC(=O)[C@H](CCC(N)=O)NC(=O)[C@H](C)NC(=O)[C@@H]2CCCN2C(=O)[C@@H]2CCCN2C1=O` [3BP-3745, Hex-[Cys(tMeBn(DOTA-PP))-Pro-Pro-Ala-Gln-Phe-Cys]-Asp-NH2] (Hexanoyl-CPPAQFCD-NH2; linker 1-7 via X13), the IC50 (in experiment [1]; on Human recombinant FAP) was 100 to 794 nM throughout.
As to `CCCCCC(=O)N[C@H]1CSCc2cc(cc(CN3CCN(C(=O)CN4CCN(CC(=O)O)CCN(CC(=O)O)CCN(CC(=O)O)CC4)CC3)c2)CSC[C@@H](C(=O)N[C@@H](CC(=O)O)C(N)=O)NC(=O)[C@H](Cc2ccccc2)NC(=O)[C@H](C)NC(=O)[C@H](C)NC(=O)[C@@H]2CCCN2C(=O)[C@@H]2CCCN2C1=O` [3BP-3746, Hex-[Cys(tMeBn(DOTA-PP))-Pro-Pro-Ala-Ala-Phe-Cys]-Asp-NH2] (Hexanoyl-CPPAAFCD-NH2; linker 1-7 via X13), the IC50 is over 1000 nM in experiment [1] and 100 to 794 nM on Human recombinant FAP.
The like results for `CCCCCC(=O)N[C@H]1CSCc2cccc(c2)CSC[C@@H](C(N)=O)NC(=O)[C@H](Cc2ccccc2)NC(=O)[C@H](CCC(N)=O)NC(=O)[C@H]([C@@H](C)O)NC(=O)[C@@H]2CCCN2C(=O)CN(CCCCN)C1=O` [3BP-3747, Hex-[Cys(3MeBn)-Nlys-Pro-Thr-Gln-Phe-Cys]-NH2] (Hexanoyl-C[Nlys]PTQFC-NH2; linker 1-7 via mXylylene) were, in that order, over 1000 nM and over 1000 nM.
With `CCCCCC(=O)N[C@H]1CSCc2cccc(c2)CSC[C@@H](C(N)=O)NC(=O)[C@H](Cc2ccccc2)NC(=O)[C@H](CCC(N)=O)NC(=O)[C@H]([C@@H](C)O)NC(=O)[C@@H]2CCCN2C(=O)CN(Cc2ccccc2)C1=O` [3BP-3748, Hex-[Cys(3MeBn)-Nphe-Pro-Thr-Gln-Phe-Cys]-NH2] (Hexanoyl-C[Nphe]PTQFC-NH2; linker 1-7 via mXylylene), the IC50 (in experiment [1]; on Human recombinant FAP) was over 1000 nM in each case.
For `CCCCCC(=O)N[C@H]1CSCc2cccc(c2)CSC[C@@H](C(N)=O)NC(=O)[C@H](Cc2ccccc2)NC(=O)[C@H](CCC(N)=O)NC(=O)[C@H]([C@@H](C)O)NC(=O)[C@@H]2CCCN2C(=O)CN(CC(C)C)C1=O` [3BP-3749, Hex-[Cys(3MeBn)-Nleu-Pro-Thr-Gln-Phe-Cys]-NH2] (Hexanoyl-C[Nleu]PTQFC-NH2; linker 1-7 via mXylylene), the IC50 (in experiment [1]; on Human recombinant FAP) was over 1000 nM throughout.
In the case of `C[C@@H](O)[C@@H]1NC(=O)[C@@H]2CCCN2C(=O)[C@@H]2CCCN2C(=O)[C@@H](NC(=O)CCCCCN)CSCc2cccc(c2)CSC[C@@H](C(N)=O)NC(=O)[C@H](Cc2ccccc2)NC(=O)[C@H](CCC(N)=O)NC1=O` [3BP-3759, H-Ahx-[Cys(3MeBn)-Pro-Pro-Thr-Gln-Phe-Cys]-NH2], the IC50 (in experiment [1]; on Human recombinant FAP) was over 1000 nM throughout.
For the molecule `C[C@@H](O)[C@@H]1NC(=O)[C@@H]2CCCN2C(=O)[C@@H]2CCCN2C(=O)[C@@H](NC(=O)CCCCN)CSCc2cccc(c2)CSC[C@@H](C(N)=O)NC(=O)[C@H](Cc2ccccc2)NC(=O)[C@H](CCC(N)=O)NC1=O` [3BP-3760, H-Ava-[Cys(3MeBn)-Pro-Pro-Thr-Gln-Phe-Cys]-NH2], the IC50 (in experiment [1]; at Human recombinant FAP) was over 1000 nM in each case.
As for `C[C@@H](O)[C@@H]1NC(=O)[C@@H]2CCCN2C(=O)[C@@H]2CCCN2C(=O)[C@@H](NC(=O)CCCN)CSCc2cccc(c2)CSC[C@@H](C(N)=O)NC(=O)[C@H](Cc2ccccc2)NC(=O)[C@H](CCC(N)=O)NC1=O` [3BP-3761, H-Gab-[Cys(3MeBn)-Pro-Pro-Thr-Gln-Phe-Cys]-NH2], the IC50 (in experiment [1]; on Human recombinant FAP) was over 1000 nM throughout.
For the molecule `C[C@@H](O)[C@@H]1NC(=O)[C@@H]2CCCN2C(=O)[C@@H]2CCCN2C(=O)[C@@H](NC(=O)Cc2ccncc2)CSCc2cccc(c2)CSC[C@@H](C(N)=O)NC(=O)[C@H](Cc2ccccc2)NC(=O)[C@H](CCC(N)=O)NC1=O` [3BP-3762, 4Pya-[Cys(3MeBn)-Pro-Pro-Thr-Gln-Phe-Cys]-NH2], the concentration for half-maximal inhibition (IC50) in experiment [1] is over 1000 nM; at Human recombinant FAP, 100 to 794 nM.

For orientation: IC50 means the concentration at which inhibition is half-maximal.
